In ChEMBL document CHEMBL5042502, “Discovery of Potent and Selective 2-(Benzylthio)pyrimidine-based DCN1-UBC12 Inhibitors for Anticardiac Fibrotic Effects” (J Med Chem, 2022):
The source made the active and inactive calls. The calls are words filed in the database; no cut-off is given here.

Assays:
Cardiac fibroblast = experiment: Inhibition of DCN1 in Ang II-treated Sprague-Dawley rat cardiac fibroblast assessed as decrease in cell migration preincubated for 2 hrs followed by Ang-II stimulation and further incubated for 24 hrs by scratch wound healing assay based microscopy; conditions: Sprague-Dawle, time 26.0 hrs
[1] = tested on: Fibroblast of cardiac tissue; experiment: Antifibrotic effect in SD rat cardiac fibroblast assessed as reduction in Ang II-induced activation of Nrf2 signaling pathway preincubated for 2 hrs followed by Ang II-stimulation and further incubated for 24 hrs by western blot analysis (reference value: 43 %); assay type: functional; conditions: time 26 hrs
[2] = tested on: Fibroblast of cardiac tissue; experiment: Antifibrotic effect in SD rat cardiac fibroblast assessed as reduction in Ang II-induced collagen I upregulation preincubated for 2 hrs followed by Ang II-stimulation and further incubated for 24 hrs by western blot analysis (reference value: 71 %); assay type: functional; conditions: time 26 hrs
[3] = tested on: Fibroblast of cardiac tissue; experiment: Reversal of TGF-beta-induced increase in collagen I secretion in mouse cardiac fibroblast at 1 uM preincubated for 2 hrs followed by TGF-beta stimulation and further incubated for 24 hrs by Western blot analysis; assay type: functional, cell-based; conditions: time 26.0 hrs
[4] = Cytotoxicity against Sprague-Dawley rat cardiac fibroblast incubated for 24 hrs by MTT assay; assay type: toxicity, cell-based, Fibroblast of cardiac tissue; conditions: cardiac fibroblasts
[5] = tested on: Fibroblast of cardiac tissue; experiment: Effect on Ang II-induced in Cul5 neddylation in mouse cardiac fibroblast at 1 uM preincubated for 2 hrs followed by Ang-II stimulation and further incubated for 24 hrs by western blot analysis; assay type: functional, cell-based; conditions: time 26.0 hrs
[6] = tested on: Fibroblast of cardiac tissue; experiment: Reversal of Ang II-induced increase in collagen I secretion in mouse cardiac fibroblast at 1 uM preincubated for 2 hrs followed by Ang-II stimulation and further incubated for 24 hrs by western blot analysis; assay type: functional, cell-based; conditions: time 26.0 hrs
[7] = tested on: Fibroblast of cardiac tissue; experiment: Effect on Cul4A neddylation in mouse cardiac fibroblast at 1 uM preincubated for 2 hrs by Western blot analysis; assay type: functional, cell-based
[8] = Toxicity in 24 hr starved C57BL/6 mouse assessed as pathological change in heart at 2 g/Kg administered via gavage measured after 2 weeks by H and E staining based histopathological analysis; assay type: tissue-based; conditions: in vivo, po, 2000 mg/kg
[9] = tested on: Fibroblast of cardiac tissue; experiment: Reversal of Ang II-induced increase in cullin 3 secretion in mouse cardiac fibroblast at 1 uM preincubated for 2 hrs followed by Ang-II stimulation and further incubated for 24 hrs by western blot analysis; assay type: functional, cell-based; conditions: time 26.0 hrs
[10] = tested on: Fibroblast of cardiac tissue; experiment: Effect on Ang II-induced in Cul2 neddylation in mouse cardiac fibroblast at 1 uM preincubated for 2 hrs followed by Ang-II stimulation and further incubated for 24 hrs by western blot analysis; assay type: functional, cell-based; conditions: time 26.0 hrs
Homo sapiens = species: Homo sapiens; experiment: Inhibition of NEDD8-UBC12 (unknown origin) interaction in presence of ATP at 100 uM by densitometry; conditions: time 10.0 min
DCN1-like protein 4 = target: T1, DCN1-like protein 4 (Homo sapiens, UniProt Q92564); experiment: Binding affinity to DCN4 (unknown origin) assessed as inhibitory constant
T1 sequence (Q92564 whole entry): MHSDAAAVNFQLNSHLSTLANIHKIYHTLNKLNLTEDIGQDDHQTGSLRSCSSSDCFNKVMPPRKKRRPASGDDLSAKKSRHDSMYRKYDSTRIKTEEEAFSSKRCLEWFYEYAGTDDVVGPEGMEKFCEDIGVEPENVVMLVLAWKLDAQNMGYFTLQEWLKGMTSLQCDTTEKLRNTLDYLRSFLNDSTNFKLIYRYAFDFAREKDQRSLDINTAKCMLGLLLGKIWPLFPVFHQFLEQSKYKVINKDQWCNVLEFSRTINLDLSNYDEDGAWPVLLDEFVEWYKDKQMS

DCN1-like protein 5 = target: T2, DCN1-like protein 5 (Homo sapiens, UniProt Q9BTE7); experiment: Binding affinity to DCN5 (unknown origin) assessed as inhibitory constant
T2 sequence (Q9BTE7 whole entry): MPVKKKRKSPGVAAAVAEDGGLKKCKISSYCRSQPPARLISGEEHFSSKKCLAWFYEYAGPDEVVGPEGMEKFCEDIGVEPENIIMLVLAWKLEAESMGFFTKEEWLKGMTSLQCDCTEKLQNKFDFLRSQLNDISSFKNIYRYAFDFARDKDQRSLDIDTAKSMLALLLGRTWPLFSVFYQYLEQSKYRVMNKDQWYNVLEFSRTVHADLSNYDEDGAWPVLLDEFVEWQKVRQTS

[11] = Toxicity in 24 hr starved C57BL/6 mouse assessed as change in body weight at 2 g/Kg administered via gavage measured upto 2 weeks; conditions: in vivo, po, 2000 mg/kg
DCN1-like protein 1 = DCN1-like protein 1 (Homo sapiens, UniProt Q96GG9)
Chain of DCN1-like protein 1 (Q96GG9 whole entry, looked up): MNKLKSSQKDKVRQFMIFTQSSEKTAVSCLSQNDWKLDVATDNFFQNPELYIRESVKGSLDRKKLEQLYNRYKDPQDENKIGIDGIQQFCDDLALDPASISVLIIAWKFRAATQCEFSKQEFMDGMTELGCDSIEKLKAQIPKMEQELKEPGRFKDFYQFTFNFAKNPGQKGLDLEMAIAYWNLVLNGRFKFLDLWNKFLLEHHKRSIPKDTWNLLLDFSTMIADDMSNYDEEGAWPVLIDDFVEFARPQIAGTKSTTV
Description: Binding affinity to DCN1 (unknown origin) assessed as change in entropy by MM-PBSA method

COc1cc(-c2nc(SCc3ccc(Cl)cc3)nc(Sc3nnnn3C)c2C#N)cc(OC)c1OC
inhibition (Cardiac fibroblast): Active | inhibition (INH) [1]: 37% | inhibition (INH) [2]: 33% | Activity [3]: Active | IC50 at 24 h [4]: 27.3 µM | Activity [5]: Active | Activity [6]: Active | Activity [7]: Active | Activity [8]: Non-Toxic | Activity [9]: Active | Activity [10]: Active | inhibition (Homo sapiens): inactive | Ki (DCN1-like protein 4): 22.4 µM | Ki (DCN1-like protein 5): 28.9 µM | Activity [11]: Non-Toxic | -TdeltaS (DCN1-like protein 1): 11.2 kcal/mol
